Data set [1] can be described thus: n-octanol-water partition coefficient, log D of the compound by HPLC capacity factor method. The format is physicochemical.
In another data set the target is T1, Galanin receptor type 2 (Homo sapiens, UniProt O43603).
T1 sequence (O43603 whole entry): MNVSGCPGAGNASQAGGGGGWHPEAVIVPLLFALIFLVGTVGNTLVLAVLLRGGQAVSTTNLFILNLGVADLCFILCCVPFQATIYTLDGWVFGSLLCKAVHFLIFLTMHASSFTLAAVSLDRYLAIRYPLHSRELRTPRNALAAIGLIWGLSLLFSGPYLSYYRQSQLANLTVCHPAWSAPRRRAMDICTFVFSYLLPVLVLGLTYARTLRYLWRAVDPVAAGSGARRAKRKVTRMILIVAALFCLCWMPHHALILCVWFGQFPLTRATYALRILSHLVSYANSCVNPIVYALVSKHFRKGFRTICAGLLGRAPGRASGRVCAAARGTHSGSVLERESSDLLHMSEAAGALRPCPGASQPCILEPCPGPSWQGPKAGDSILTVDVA
In words: Displacement of euporium-galanin from human GalR2 after 1.5 hrs by DELFIA assay.

In data set [2] the test system is Mus musculus. Nature of the data set: Neurotoxicity against CF1 albino mouse assessed as motor impairment at 0.1 nmol/5 ul, icv after 0.5 hrs by rotarod test. It is filed as toxicity, organism-based. As to conditions: in vivo, icv_or_intrathecal.
Data set [3] can be described thus: Half life in rat serum by HPLC analysis. It is filed as ADME, cell-free.
For data set [4], the system named is Mus musculus. Nature of the data set: Anticonvulsant activity in CF1 albino mouse assessed as protection against 6Hz partial psychomotor seizure at 1 nmol/5 ul, icv after 0.5 hrs relative to control. The format is functional, organism-based.
For another data set, the target named is T2, Galanin receptor type 1 (Homo sapiens, UniProt P47211).
T2 sequence (P47211 whole entry): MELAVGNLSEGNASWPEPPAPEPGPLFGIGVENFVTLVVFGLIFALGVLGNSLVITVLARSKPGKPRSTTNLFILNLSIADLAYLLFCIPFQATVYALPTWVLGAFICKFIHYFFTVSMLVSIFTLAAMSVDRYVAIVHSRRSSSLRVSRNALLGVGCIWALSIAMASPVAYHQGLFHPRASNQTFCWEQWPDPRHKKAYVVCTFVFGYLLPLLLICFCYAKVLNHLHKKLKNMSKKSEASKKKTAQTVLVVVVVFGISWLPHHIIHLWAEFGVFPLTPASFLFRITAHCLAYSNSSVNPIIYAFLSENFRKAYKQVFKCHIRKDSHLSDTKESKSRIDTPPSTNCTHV
In words: Displacement of euporium-galanin from human GalR1 after 1.5 hrs by DELFIA assay.

Data set [5] can be described thus: n-octanol-water partition coefficient, log D of the compound by shake-flask method. The format is physicochemical.
Data set [6] has as its target T3, Neuropeptide Y receptor type 2 (Homo sapiens, UniProt P49146).
T3 sequence (P49146 whole entry): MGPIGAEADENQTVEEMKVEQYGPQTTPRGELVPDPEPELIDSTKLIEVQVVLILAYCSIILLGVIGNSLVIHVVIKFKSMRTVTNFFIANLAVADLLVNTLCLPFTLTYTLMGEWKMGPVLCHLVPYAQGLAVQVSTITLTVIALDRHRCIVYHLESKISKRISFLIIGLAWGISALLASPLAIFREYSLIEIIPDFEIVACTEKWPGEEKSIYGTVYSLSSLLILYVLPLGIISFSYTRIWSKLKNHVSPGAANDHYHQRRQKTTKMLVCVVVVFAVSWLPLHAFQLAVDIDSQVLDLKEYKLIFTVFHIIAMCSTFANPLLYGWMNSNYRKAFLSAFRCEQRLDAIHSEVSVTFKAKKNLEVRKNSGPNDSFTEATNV
In words: Agonist activity at human NPY2R expressed inj CHOK1 cells assessed as inhibition of forskolin-stimulated cAMP production after 30 mins by luminescence assay. The format is functional, cell-based, CHO-K1. (cAMP levels reflect the balance of adenylyl cyclase and phosphodiesterase activity.)

Molecules are shown by their SMILES. Calls of active or inactive are those of the source. Bridge positions count the residues as written; N and C are the ends. Square brackets hold non-standard residues; d marks the D form. Peptide text beside a SMILES is read from it. * marks the point of attachment. X1 = CC(=O)N(C(=O)CCCCCN)[C@@H](C)C(=O)*; S5 = C=CCCC[C@](C)(N)C(=O)O; Sar = CNCC(=O)O

For `CNCC(=O)N[C@@H](Cc1c[nH]c2ccccc12)C(=O)N[C@H](C(=O)N[C@@H](CC(C)C)C(=O)N[C@@H](CC(N)=O)C(=O)N[C@@H](CO)C(=O)N[C@@H](C)C(=O)NCC(=O)N[C@@H](Cc1ccc(O)cc1)C(=O)N[C@@H](CC(C)C)C(=O)N[C@@H](CC(C)C)C(=O)NCC(=O)N1CCC[C@H]1C(=O)N[C@@]1(C)CCC/C=C\CCC[C@@](C)(C(=O)N[C@@H](CCCCN)C(N)=O)NC(=O)[C@H](CCCCN)NC(=O)[C@H](CCCCN)NC(=O)[C@H](CCCCN)NC1=O)[C@@H](C)O` (H-[Sar]WTLNSAGYLLGP[S5]KKK[S5]K-NH2; staple (Z) 14-18), in data set [1], the chromatographic logD worked out at 0.78. Moreover, the Ki at Galanin receptor type 2 came out at 15.6 nM; at Galanin receptor type 1 it was 3.8 nM. Also, the Activity entry in the data set on Mus musculus [2] was “Non-toxic”. Further, in data set [3], the half-life is 15.7 h. For the same compound, the result with Mus musculus [4] was Active.
Turning to `CC(C)C[C@H](NC(=O)[C@H](CC(C)C)NC(=O)[C@H](Cc1ccc(O)cc1)NC(=O)CNC(=O)[C@H](C)NC(=O)[C@H](CO)NC(=O)[C@H](CC(N)=O)NC(=O)[C@H](CC(C)C)NC(=O)[C@@H](NC(=O)[C@H](Cc1c[nH]c2ccccc12)NC(=O)CN)[C@@H](C)O)C(=O)NCC(=O)N1CCC[C@H]1C(=O)N[C@@H](Cc1cnc[nH]1)C(=O)N[C@@H](C)C(=O)N[C@H](C(N)=O)C(C)C`, the Activity entry in the data set with Mus musculus [2] is recorded as “Non-toxic”. In data set [3], this compound had a half-life of 0.13 h. In addition, the result with Mus musculus [4] was inactive.
In the case of `CC[C@H](C)[C@H](NC(=O)[C@H](Cc1ccc(O)cc1)NC(=O)[C@H](Cc1cnc[nH]1)NC(=O)[C@H](CCCNC(=N)N)NC(=O)[C@H](C)N(C(C)=O)C(=O)CCCCCN)C(=O)N[C@@H](CC(N)=O)C(=O)N[C@@H](CC(C)C)C(=O)N[C@H](C(=O)N[C@H](C(=O)N[C@@H](CCCNC(=N)N)C(=O)N[C@@H](CCC(N)=O)C(=O)N[C@@H](CCCNC(=N)N)C(=O)N[C@@H](Cc1ccc(O)cc1)C(N)=O)[C@@H](C)O)[C@@H](C)CC` (X1-RHYINLITRQRY-NH2), the half-life in data set [3] is 0.57 h. In data set [5], this compound showed a logD of -2.13.
As to `CC[C@H](C)[C@H](NC(=O)[C@H](Cc1ccc(O)cc1)NC(=O)[C@H](Cc1cnc[nH]1)NC(=O)[C@H](CCCN=C(N)N)NC(=O)[C@H](C)N(C(=O)CCCCCN)C(=O)[C@]1(C)CCC/C=C\CCC[C@](C)(NC(=O)[C@H](Cc2ccc(O)cc2)NC(C)=O)C(=O)N[C@@H](CCCCN)C(=O)N[C@@H](CCCCN)C(=O)N[C@@H](CCCCN)C(=O)N1)C(=O)N[C@@H](CC(N)=O)C(=O)N[C@@H](CC(C)C)C(=O)N[C@@H](CC(C)C)C(=O)N[C@H](C(=O)N[C@@H](CCCN=C(N)N)C(=O)N[C@@H](CCC(N)=O)C(=O)N[C@@H](CCCN=C(N)N)C(=O)N[C@@H](Cc1ccc(O)cc1)C(N)=O)[C@@H](C)O`, the Activity result in the data set on Mus musculus [2] is “Non-toxic”. Besides, in data set [3], the half-life is 1.8 h. Moreover, the EC50 in data set [6] came out at 403 nM. Also, the pH-dependent lipophilicity (logD) in data set [5] turned out to be 0.08.
With `CC(=O)N[C@@H](C)C(=O)N[C@@H](CCCNC(=N)N)C(=O)N[C@@H](Cc1cnc[nH]1)C(=O)N[C@@H](Cc1ccc(O)cc1)C(=O)N[C@@]1(C)CCC/C=C/CCC[C@@](C)(C(=O)N[C@@H](CCCNC(=N)N)C(=O)N[C@@H](CCC(N)=O)C(=O)N[C@@H](CCCNC(=N)N)C(=O)N[C@@H](Cc2ccc(O)cc2)C(N)=O)NC(=O)[C@H](CC(C)C)NC(=O)[C@H](CC(C)C)NC(=O)[C@H](CC(N)=O)NC1=O` (Ac-ARHY[S5]NLL[S5]RQRY-NH2; staple (E) 5-9), the Activity entry in the data set with Mus musculus [2] is on record as “Toxic”. The compound further showed a half-life in data set [3] of 2.7 h. In addition, in data set [5], the logD was -0.71. In addition, the outcome with Mus musculus [4] was Active.
In data set [1], `CNCC(=O)N[C@@H](Cc1c[nH]c2ccccc12)C(=O)N[C@H](C(=O)N[C@@H](CC(C)C)C(=O)N[C@@H](CC(N)=O)C(=O)N[C@@H](CO)C(=O)N[C@@]1(C)CCC/C=C/CCC[C@@](C)(C(=O)NCC(=O)N2CCC[C@H]2C(=O)N[C@@H](CCCCN)C(=O)N[C@@H](CCCCN)C(=O)N[C@@H](CCCCN)C(=O)N[C@@H](CCCCN)C(N)=O)NC(=O)[C@H](CC(C)C)NC(=O)[C@H](Cc2ccc(O)cc2)NC(=O)CNC1=O)[C@@H](C)O` (H-[Sar]WTLNS[S5]GYL[S5]GPKKKK-NH2; staple (E) 7-11) had a chromatographic logD of 0.71. Also, the results for the Ki on Galanin receptor type 2 and on Galanin receptor type 1 were 119 nM and 37.5 nM, respectively. For the same compound, the Activity entry with Mus musculus [2] is given as “Non-toxic”. Further, the half-life in data set [3] was 6.4 h. Moreover, in the data set on Mus musculus [4], the outcome was Active.
As for `CC[C@H](C)[C@H](NC(=O)[C@H](Cc1ccc(O)cc1)NC(=O)[C@H](Cc1cnc[nH]1)NC(=O)[C@H](CCCNC(=N)N)NC(=O)[C@H](C)N(C(=O)CCCCCN)C(=O)[C@]1(C)CCC/C=C\CCC[C@](C)(NC(=O)[C@H](Cc2ccc(O)cc2)NC(C)=O)C(=O)N[C@@H](CCCCN)C(=O)N[C@@H](CCCCN)C(=O)N[C@@H](CCCCN)C(=O)N1)C(=O)N[C@@H](CC(N)=O)C(=O)N[C@@H](CC(C)C)C(=O)N[C@@H](CC(C)C)C(=O)N[C@H](C(=O)N[C@@H](CCCNC(=N)N)C(=O)N[C@@H](CCC(N)=O)C(=O)N[C@@H](CCCNC(=N)N)C(=O)N[C@@H](Cc1ccc(O)cc1)C(N)=O)[C@@H](C)O`, the result in the data set with Mus musculus [4] was Active.
With `CC[C@H](C)[C@H](NC(=O)[C@H](Cc1ccc(O)cc1)NC(=O)[C@H](Cc1c[nH]cn1)NC(=O)[C@H](CCCN=C(N)N)NC(=O)[C@H](CC(C)C)NC(=O)[C@H](C)NC(=O)[C@H](CO)NC(=O)[C@H](Cc1ccc(O)cc1)NC(=O)[C@H](Cc1ccc(O)cc1)NC(=O)[C@H](CCCN=C(N)N)NC(=O)[C@H](C)NC(=O)[C@H](CC(C)C)NC(=O)[C@H](CC(=O)O)NC(=O)[C@H](CCC(=O)O)NC(=O)[C@H](C)NC(=O)[C@@H]1CCCN1)C(=O)N[C@@H](CC(N)=O)C(=O)N[C@@H](CC(C)C)C(=O)N[C@H](C(=O)N[C@H](C(=O)N[C@@H](CCCN=C(N)N)C(=O)N[C@@H](CCC(N)=O)C(=O)N[C@@H](CCCN=C(N)N)C(=O)N[C@@H](Cc1ccc(O)cc1)C(=O)O)[C@@H](C)O)[C@@H](C)CC`, in the data set on Mus musculus [2], the Activity entry was “Non-toxic”. Moreover, the result in the data set with Mus musculus [4] was inactive.

As usually defined, the chromatographic logD is a lipophilicity value derived from retention on a column. A higher chromatographic logD goes with a more lipophilic compound. In general, Ki refers to a measure of affinity in units of concentration, obtained from inhibition or displacement. A low value points to a stronger hold on the target. The term half-life denotes the time needed for the level to fall by half in the phase considered. Low values mean fast loss, high ones slow loss. In general, logD refers to lipophilicity at a set pH, counting ionised and neutral species. The EC50 is the concentration needed to bring the measured effect to its halfway point.

The values above are taken from ChEMBL document CHEMBL2321677, “Cyclic analogs of galanin and neuropeptide Y by hydrocarbon stapling” (Bioorg Med Chem, 2013).
